Patent US20070225351A1, “Methods and compositions for controlling body weight and appetite” (priority 2002, published 2007)

Test: in vivo
Format: in vivo
Method: Eighteen male and eighteen female beagle dogs were received from Ridglan Farms, Mt. Horeb, Wis. […] Each group consisted of four males and four females. All animals/sex/group were scheduled for the primary necropsy at the end of the 13-week treatment period.
The animals were observed twice daily for mortality and moribundity. Clinical examinations were performed daily at the time of dosing and approximately 1-2 and approximately 3 hours following dose administration. Detailed physical examinations were performed weekly. Clinical pathology evaluations (hematology, serum chemistry and urinalysis) were performed prior to the initiation of dose administration (study week-1) and prior to the scheduled necropsy (study week 13). Individual body weights were recorded weekly, beginning approximately two weeks prior to test article administration (study week-2). Mean body weights and mean body weight changes were calculated for each corresponding interval. Final body weights (fasted) were recorded prior to the scheduled necropsy. […] Gross lesions were also examined from the 2.0 and 6.0 mg/kg/day groups.

SMILES: Cl.Clc1ccc([C@@]23CNC[C@@H]2C3)cc1Cl (single isomer, unassigned) [(+)-1-(3,4-dichlorophenyl)-3-azabicyclo[3.1.0]hexane hydrochloride]
- weekly food consumption, MEAN (female dogs, 20 MG/KG/DAY, WEEK 11 TO 12): 305. C/ANIMAL/DAY
- weekly food consumption, MEAN (female dogs, 20 MG/KG/DAY, WEEK 12 TO 13): 249. C/ANIMAL/DAY
- mean total cumulative body weight change, lower than control (male dogs, 20 mg/kg/day, end of 13-week study (body weight loss)): 120%
- mean food consumption, lower than control (male dogs, 20 mg/kg/day, first week of dose administration): 33%
- food consumption, less than control values (male dogs, 20 mg/kg/day, generally, throughout the study): at least 10%
- mean body weight, lower than control (male dogs, 20 mg/kg/day, study week 13): 13%
- mean food consumption, lower than control (male dogs, 20 mg/kg/day, study weeks 6 to 13 except week 8 to 9, not statistically significant): at least 10%
- weekly food consumption, MEAN (male dogs, 2.0 MG/KG/DAY group, WEEK −1 TO 0 (before dosing)): 339. C/ANIMAL/DAY
- weekly food consumption, MEAN (male dogs, 2.0 MG/KG/DAY, WEEK 0 TO 1): 320. C/ANIMAL/DAY
- weekly food consumption, MEAN (male dogs, 2.0 MG/KG/DAY, WEEK 1 TO 2): 354. C/ANIMAL/DAY
- weekly food consumption, MEAN (male dogs, 2.0 MG/KG/DAY, WEEK 2 TO 3): 373. C/ANIMAL/DAY
- weekly food consumption, MEAN (male dogs, 2.0 MG/KG/DAY, WEEK 3 TO 4): 366. C/ANIMAL/DAY
- weekly food consumption, MEAN (male dogs, 2.0 MG/KG/DAY, WEEK 4 TO 5): 369. C/ANIMAL/DAY
- weekly food consumption, MEAN (male dogs, 2.0 MG/KG/DAY, WEEK 5 TO 6): 360. C/ANIMAL/DAY
- weekly food consumption, MEAN (male dogs, 2.0 MG/KG/DAY, WEEK 6 TO 7): 393. C/ANIMAL/DAY
- weekly food consumption, MEAN (male dogs, 2.0 MG/KG/DAY, WEEK 7 TO 8): 360. C/ANIMAL/DAY
- weekly food consumption, MEAN (male dogs, 2.0 MG/KG/DAY, WEEK 8 TO 9): 388. C/ANIMAL/DAY
- weekly food consumption, MEAN (male dogs, 2.0 MG/KG/DAY, WEEK 9 TO 10): 375. C/ANIMAL/DAY
- weekly food consumption, MEAN (male dogs, 2.0 MG/KG/DAY, WEEK 10 TO 11): 389. C/ANIMAL/DAY
- weekly food consumption, MEAN (male dogs, 2.0 MG/KG/DAY, WEEK 12 TO 13): 355. C/ANIMAL/DAY
- weekly food consumption, MEAN (male dogs, 6.0 MG/KG/DAY group, WEEK −1 TO 0 (before dosing)): 331. C/ANIMAL/DAY
- weekly food consumption, MEAN (male dogs, 6.0 MG/KG/DAY, WEEK 0 TO 1): 351. C/ANIMAL/DAY
- weekly food consumption, MEAN (male dogs, 6.0 MG/KG/DAY, WEEK 1 TO 2): 370. C/ANIMAL/DAY
- weekly food consumption, MEAN (male dogs, 6.0 MG/KG/DAY, WEEK 3 TO 4): 380. C/ANIMAL/DAY
- weekly food consumption, MEAN (male dogs, 6.0 MG/KG/DAY, WEEK 4 TO 5): 350. C/ANIMAL/DAY
- weekly food consumption, MEAN (male dogs, 6.0 MG/KG/DAY, WEEK 5 TO 6): 374. C/ANIMAL/DAY
- weekly food consumption, MEAN (male dogs, 6.0 MG/KG/DAY, WEEK 6 TO 7): 381. C/ANIMAL/DAY
- weekly food consumption, MEAN (male dogs, 6.0 MG/KG/DAY, WEEK 7 TO 8): 356. C/ANIMAL/DAY
- weekly food consumption, MEAN (male dogs, 6.0 MG/KG/DAY, WEEK 8 TO 9): 368. C/ANIMAL/DAY
- weekly food consumption, MEAN (male dogs, 6.0 MG/KG/DAY, WEEK 9 TO 10): 360. C/ANIMAL/DAY
- weekly food consumption, MEAN (male dogs, 6.0 MG/KG/DAY, WEEK 10 TO 11): 367. C/ANIMAL/DAY
- weekly food consumption, MEAN (male dogs, 6.0 MG/KG/DAY, WEEK 11 TO 12): 357. C/ANIMAL/DAY
- weekly food consumption, MEAN (male dogs, 6.0 MG/KG/DAY, WEEK 12 TO 13): 331. C/ANIMAL/DAY
- weekly food consumption, MEAN (male dogs, 20 MG/KG/DAY group, WEEK −1 TO 0 (before dosing)): 337. C/ANIMAL/DAY
- weekly food consumption, MEAN (male dogs, 20 MG/KG/DAY, WEEK 0 TO 1): 228.* C/ANIMAL/DAY
- weekly food consumption, MEAN (male dogs, 20 MG/KG/DAY, WEEK 1 TO 2): 319. C/ANIMAL/DAY
- weekly food consumption, MEAN (male dogs, 20 MG/KG/DAY, WEEK 2 TO 3): 326. C/ANIMAL/DAY
- weekly food consumption, MEAN (male dogs, 20 MG/KG/DAY, WEEK 3 TO 4): 357. C/ANIMAL/DAY
- weekly food consumption, MEAN (male dogs, 20 MG/KG/DAY, WEEK 4 TO 5): 356. C/ANIMAL/DAY
- weekly food consumption, MEAN (male dogs, 20 MG/KG/DAY, WEEK 5 TO 6): 331. C/ANIMAL/DAY
- weekly food consumption, MEAN (male dogs, 20 MG/KG/DAY, WEEK 6 TO 7): 328. C/ANIMAL/DAY
- weekly food consumption, MEAN (male dogs, 20 MG/KG/DAY, WEEK 7 TO 8): 325. C/ANIMAL/DAY
- weekly food consumption, MEAN (male dogs, 20 MG/KG/DAY, WEEK 8 TO 9): 375. C/ANIMAL/DAY
- weekly food consumption, MEAN (male dogs, 20 MG/KG/DAY, WEEK 9 TO 10): 322. C/ANIMAL/DAY
- weekly food consumption, MEAN (male dogs, 20 MG/KG/DAY, WEEK 10 TO 11): 350. C/ANIMAL/DAY
- weekly food consumption, MEAN (male dogs, 20 MG/KG/DAY, WEEK 11 TO 12): 305. C/ANIMAL/DAY
- weekly food consumption, MEAN (male dogs, 20 MG/KG/DAY, WEEK 12 TO 13): 249. C/ANIMAL/DAY
